From PMC9979163, “Discovery and functional characterization of N-(thiazol-2-yl)-benzamide analogs as the first class of selective antagonists of the Zinc-Activated Channel (ZAC)” (Biochemical pharmacology, 2021)

Legend:
Assay type in all cases: cell-based
[1] = target: T1, ZAC (Homo sapiens, UniProt Q401N2); experiment: TEVC recordings, Zn2+-evoked currents at ZAC expressed in Xenopus oocytes; details: for Antagonist activity at ZAC in SAR study (in words): tested at three concentrations (0.3-3-30 μM or 1-10-100 μM); for IC50: steady-state current, read-out: pIC50 ± S.E.M. (converted)
T1 sequence (Q401N2 26-412): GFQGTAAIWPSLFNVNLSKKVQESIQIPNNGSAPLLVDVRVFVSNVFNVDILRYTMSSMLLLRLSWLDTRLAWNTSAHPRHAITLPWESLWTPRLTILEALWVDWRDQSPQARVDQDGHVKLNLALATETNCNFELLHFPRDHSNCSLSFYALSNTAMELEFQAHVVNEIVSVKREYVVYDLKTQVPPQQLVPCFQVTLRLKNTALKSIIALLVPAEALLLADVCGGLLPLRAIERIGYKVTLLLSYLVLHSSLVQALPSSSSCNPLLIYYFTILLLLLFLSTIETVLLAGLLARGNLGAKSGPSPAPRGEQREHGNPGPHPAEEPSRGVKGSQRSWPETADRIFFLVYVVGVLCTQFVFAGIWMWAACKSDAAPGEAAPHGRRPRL
Method: (§1) The cDNAs for the various WT and chimeric CLR subunits were linearized and subsequently transcribed and capped mMessage mMachine T7 RNA transcription kit (Ambion, Waltham, MA). Different amounts of cRNA mixtures were injected for ZAC (9.2–36.8 nL in a concentration of 0.05 μg/μL), […] nAChR (9.2–36.8 nL in a concentration of 0.1 μg/μL of each subunit in a ratio of 1:1), hα1 GlyR (9.2–36.8 nL in a concentration of 0.05 μg/μL), hα1β2γ2s GABAAR (9.2–36.8 nL in a concentration of 0.05 μg/μL of each subunit in a ratio of 1:1:3), m5-HT3AR (9.2–36.8 nL in a concentration of 0.05 μg/μL), m5-HT3A/ZAC (9.2–36.8 nL in a concentration of 0.207 μg/μL), and ZAC/hai-Gly (9.2–36.8 nL in a concentration of 0.206 μg/μL). Oocytes were incubated in a sterile modified Barth’s solution [88 mM NaCl, 1 mM KCl, 15 mM HEPES (pH 7.5), 2.4 mM NaHCO3, 0.41 mM CaCl2, 0.82 mM MgSO4, 0.3 mM Ca(NO3)2, 100 U/ml penicillin and 100 μg/ml strep-tomycin] at 18 °C for 2 days after injection.
(§2) On the day of experiment, all compound dilutions were prepared in a saline solution [115 mM NaCl, 2.5 mM KCl, 10 mM MOPS (pH 7.5), 1.8 mM CaCl2, 0.1 mM MgCl2] and pH adjusted to 7.5 (if needed). Oocytes were placed in a recording chamber continuously perfused with this saline solution, and the compounds were applied in the perfusate. Both voltage and current electrodes were agar-plugged with 3 M KCl with a resistance of 0.2–2.0 MΩ. Oocytes were voltage-clamped at −50 mV (unless otherwise stated) by a Gene Clamp 500B amplifier (Axon Instruments, Union City, CA), while current signals were digitized by a Digidata 1320. Currents were recorded using pCLAMP 10 (Molecular Devices, Sunnyvale, CA). The recordings were performed at room temperature.
In all recordings, the compounds or compound combinations were applied in the bath until the peak current decayed to a steady state (up to 30 sec at the most). […] The functional properties of the modulators at the CLRs were determined by pre-application of the modulator to the perfusate 30 sec and followed by co-application of the modulator and the agonist to the perfusate. In all recordings, washes of 1–5 min were executed between the applications to prevent receptor desensitization, the duration of these washes depending on the kinetics of the respective receptors and the “stickyness” of the respective compounds. […] For the selectivity and mode-of-action studies, the agonist concentrations used for different CLRs or chimeric CLRs were in the EC20–EC40 range (verified on the day of experiment), as this enabled us to investigate both for putative positive and negative receptor modulation exerted by TTFB (hα3β4 nAChR, 3 μM (S)-nicotine; m5-HT3AR, 2 μM 5-HT; hα1 GlyR, 100 μM glycine; hα1β2γ2S GABAAR, 30 μM GABA; m5-HT3A/ZAC, 0.3 μM 5-HT; ZAC/hɑ1-Gly, 2 μM Zn^2+).
Data analysis of the results from the TEVC recordings were performed using Clampfit software version 10.5 (Molecular Devices, Crawley, UK) and GraphPad Prism version 7.0c (GraphPad Software, Inc. La Jolla, CA). Data for the test compounds were normalized to either the maximal agonist-evoked current or to an EC20–EC50-mediated response elicited by the agonist on each oocyte (specified in each case). Unless otherwise stated, data for agonist-induced responses in the presence of the antagonists were extracted from the plateau (or steady-state) of the agonist-evoked current. Concentration-response and concentration-inhibition curves were fitted in GraphPad Prism by nonlinear regression using the equation for sigmoidal dose-response with variable slope. I-V relationships were analyzed by fitting the curves with a third order polynomial model. Each data point represents the mean ± S.E.M. value of recordings performed on at least five oocytes from at least two different batches.

[2] = target: T2, hα1 GlyR (Homo sapiens, UniProt P23415); experiment: TEVC selectivity, hα1 GlyR in oocytes; details: 30 μM, 30 s preapplication, 100 μM glycine (EC20–EC40)
T2 sequence (P23415 29-457): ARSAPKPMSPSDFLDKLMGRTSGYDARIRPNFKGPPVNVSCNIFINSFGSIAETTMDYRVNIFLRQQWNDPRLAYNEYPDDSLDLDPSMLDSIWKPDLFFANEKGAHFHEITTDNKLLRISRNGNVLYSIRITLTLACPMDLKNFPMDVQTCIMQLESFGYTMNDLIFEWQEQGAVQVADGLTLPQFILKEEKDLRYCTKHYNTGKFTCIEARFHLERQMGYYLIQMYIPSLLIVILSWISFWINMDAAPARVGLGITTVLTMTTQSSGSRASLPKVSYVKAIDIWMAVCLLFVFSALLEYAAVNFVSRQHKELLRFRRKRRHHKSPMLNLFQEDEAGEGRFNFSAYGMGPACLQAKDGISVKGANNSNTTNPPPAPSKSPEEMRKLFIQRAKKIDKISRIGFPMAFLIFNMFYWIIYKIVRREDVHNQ
Method: The cDNAs for the various WT and chimeric CLR subunits were linearized and subsequently transcribed and capped mMessage mMachine T7 RNA transcription kit (Ambion, Waltham, MA). […]
On the day of experiment, all compound dilutions were prepared in a saline solution [115 mM NaCl, 2.5 mM KCl, 10 mM MOPS (pH 7.5), 1.8 mM CaCl2, 0.1 mM MgCl2] and pH adjusted to 7.5 (if needed). […] Currents were recorded using pCLAMP 10 (Molecular Devices, Sunnyvale, CA). […]
In all recordings, the compounds or compound combinations were applied in the bath until the peak current decayed to a steady state (up to 30 sec at the most). […] The functional properties of the modulators at the CLRs were determined by pre-application of the modulator to the perfusate 30 sec and followed by co-application of the modulator and the agonist to the perfusate. […]
(§3) Data analysis of the results from the TEVC recordings were performed using Clampfit software version 10.5 (Molecular Devices, Crawley, UK) and GraphPad Prism version 7.0c (GraphPad Software, Inc. La Jolla, CA). […] I-V relationships were analyzed by fitting the curves with a third order polynomial model. […]

[3] = target: T1, ZAC; experiment: TEVC recordings, spontaneous ZAC activity in Xenopus oocytes; details: for IC50: block of spontaneous ZAC activity (leak current), TEVC
Method: as §1, §2
In all recordings, the compounds or compound combinations were applied in the bath until the peak current decayed to a steady state (up to 30 sec at the most). […] The functional properties of the modulators at the CLRs were determined by pre-application of the modulator to the perfusate 30 sec and followed by co-application of the modulator and the agonist to the perfusate. In all recordings, washes of 1–5 min were executed between the applications to prevent receptor desensitization, the duration of these washes depending on the kinetics of the respective receptors and the “stickyness” of the respective compounds. […]
as §3

| SMILES | Inhibition of ZAC at 10 μM (in words) ([1]; 10 μM compound, 1 mM Zn2+ as agonist) | Antagonist activity at ZAC in SAR study (in words) ([1]; 1 mM Zn2+ as agonist) | Fitted inhibition range, Inhibition (%) ([1]; Zn2+ (1 mM) as agonist, TEVC) | Hill coefficient nH ± S.E.M. ([1]; Zn2+ (1 mM) as agonist, TEVC) | IC50 ([1]; Zn2+ (1 mM) as agonist, TEVC) [µM] | Extent of inhibition of Zn2+-induced responses (in words) ([1]; Zn2+ (1 mM), full concentration-inhibition curves) | Agonist, antagonist or PAM activity [2] | Equilibrium potential ([3]; TTFB (100 μM)-induced currents, holding potentials −60 mV to +60 mV) [mV] | IC50 ([3]; read-out: IC50) [µM] | IC50 ([3]; read-out: pIC50 ± S.E.M. (converted)) [µM] | Mode of antagonism ([1]; Zn2+ concentration-response curves in absence and presence of various concentrations of the compound) |
| --- | --- | --- | --- | --- | --- | --- | --- | --- | --- | --- | --- |
| CC(C)(C)c1csc(NC(=O)c2cccc(F)c2)n1 [5a, N-(4-(tert-butyl)thiazol-2-yl)-3-fluorobenzamide] | almost complete inhibition | roughly equipotent with 2b | 91 ± 3 | −1.5 ± 0.08 | 3.02 | completely | did not display significant activity | −11.5 | 4.7 | 4.79 | – |
| COC(=O)c1sc(NC(=O)c2cc(Br)ccc2Cl)nc1C [compound 1, 2-(5-bromo-2-chlorobenzamido)-4-methylthiazole-5-methyl ester] | – | weaker antagonists | – | −1.3 ± 0.13 | 4.07 | – | – | – | 7.4 | – | largely non-competitive |
